pIC50: −log10 of the molar value.
System: rat aortic ring microvessel formation
Assay: rat aortic ring model of angiogenesis (microvessel formation)
Type: cell-based
Conditions: 192 h; in vitro rat aortic rings, microvessel area after eight days in culture, compared to vehicle-treated control rings; read-out: IC50 (inhibition of microvessel formation, angiogenesis inhibitory activity)
Experimental: Angiogenesis inhibitory activity was measured in vitro using the rat aortic ring model of angiogenesis as described by Nicosia, R. F. and Ottinetti in “Laboratory Investigation”, vol. 63, p. 115, 1990. The ability of compounds to inhibit microvessel formation was compared to vehicle-treated control rings. Quantitation (microvessel area) following eight days in culture was performed using an image analysis system, consisting of a light microscope, a CCD camera and an automated, custom-designed image analysis program as described by Nissanov, J., Tuman, R. W., Gruver, L. M., and Fortunato, J. M. in “Laboratory Investigation”, vol 73 (#5), p. 734, 1995. Compounds were tested at several concentrations for determination of inhibitory potency (IC50's).

Compound	pIC50
Cc1nsc(-c2ccc(N3CCN(c4cccc(C(F)(F)F)c4)CC3)cc2)n1 [Compound 2, 1-[4-(3-methyl-1,2,4-thiadiazol-5-yl)phenyl]-4-[3-(trifluoromethyl)phenyl]piperazine]	> 8.00
Cc1nsc(-c2ccc(N3CCN(c4cccc(C(F)(F)F)c4)CC3)nc2)n1 [Compound 6, 1-[5-(3-methyl-1,2,4-thiadiazol-5-yl)-2-pyridinyl]-4-[3-(trifluoromethyl)-phenyl]-piperazine]	> 8.00
